# Source: ChEMBL document CHEMBL4251572, “Novel aminopyrimidinyl benzimidazoles as potentially antimicrobial agents: Design, synthesis and biological evaluation” (Eur J Med Chem, 2018)
# Columns and labels:
# [1] = tested on: Saccharomyces cerevisiae; assay: Antifungal against Saccharomyces cerevisiae after 24 hrs by two fold serial dilution method; format: functional
# [2] = tested on: Micrococcus luteus; assay: Antibacterial activity against Micrococcus luteus ATCC4698 after 24 hrs by micro broth dilution assay; format: functional; settings: ATCC4698, 24 h
# [3] = tested on: Shigella dysenteriae; assay: Antibacterial activity against Shigella dysenteriae after 24 hrs by micro broth dilution assay; format: functional
# [4] = tested on: Pseudomonas aeruginosa; assay: Antibacterial activity against Pseudomonas aeruginosa after 24 hrs by micro broth dilution assay; format: functional
# [5] = tested on: Bacillus subtilis; assay: Antibacterial activity against Bacillus subtilis after 24 hrs by micro broth dilution assay; format: functional
# [6] = tested on: Escherichia coli; assay: Antibacterial activity against Escherichia coli DH52 after 24 hrs by micro broth dilution assay; format: functional; settings: DH52, 24 h
# [7] = tested on: Pichia norvegensis; assay: Antifungal against Candida mycoderma after 24 hrs by two fold serial dilution method; format: functional
# [8] = tested on: Cyberlindnera jadinii; assay: Antifungal against Candida utilis after 24 hrs by two fold serial dilution method; format: functional; settings: Williopsis jadinii
# [9] = tested on: Escherichia coli; assay: Antibacterial activity against Escherichia coli JM109 after 24 hrs by micro broth dilution assay; format: functional; settings: JM109, 24 h
# [10] = tested on: Salmonella typhi; assay: Antibacterial activity against Bacillus typhi after 24 hrs by micro broth dilution assay; format: functional, Salmonella enterica subsp. enterica serovar Typhi; settings: Salmonella enterica
# [11] = tested on: Candida albicans; assay: Antifungal against Candida albicans ATCC 76615 after 24 hrs by two fold serial dilution method; format: functional; settings: ATCC 76615, 24 h
# [12] = tested on: Bacillus; assay: Antibacterial activity against Bacillus proteus ATCC 13315 after 24 hrs by micro broth dilution assay; format: functional; settings: ATCC 13315, 24 h
# [13] = tested on: Staphylococcus aureus; assay: Antibacterial activity against methicillin-resistant Staphylococcus aureus N315 after 24 hrs by micro broth dilution assay; format: functional; settings: N315, 24 h
# [14] = tested on: Staphylococcus aureus; assay: Antibacterial activity against Staphylococcus aureus ATCC 25923 after 24 hrs by micro broth dilution assay; format: functional; settings: ATCC 25923, 24 h
# [15] = tested on: Aspergillus flavus; assay: Antifungal against Aspergillus flavus after 24 hrs by two fold serial dilution method; format: functional
Compound,MIC [1] [µg/mL],MIC [2] [µg/mL],MIC [3] [µg/mL],MIC [4] [µg/mL],MIC [5] [µg/mL],MIC [6] [µg/mL],MIC [7] [µg/mL],MIC [8] [µg/mL],MIC [9] [µg/mL],MIC [10] [µg/mL],MIC [11] [µg/mL],MIC [12] [µg/mL],MIC [13] [µg/mL],MIC [14] [µg/mL],MIC [15] [µg/mL]
CCCCn1c(C(=O)/C=C/c2ccc(F)cc2)nc2ccccc21,512,8,4,0.5,4,64,64,16,16,8,16,512,8,4,128
CCCCCCCn1c(-c2cc(-c3ccc(Cl)cc3)nc(N)n2)nc2ccccc21,8,512,4,64,2,16,16,4,512,8,128,512,8,128,256
CCCCn1c(C(=O)/C=C/c2ccc(Cl)cc2Cl)nc2ccccc21,16,512,16,512,64,512,128,512,256,512,256,512,8,512,512
CCCCCCCn1c(C(=O)/C=C/c2ccc(C)cc2)nc2ccccc21,512,512,512,512,512,512,512,512,512,512,16,512,8,4,512
CCCCCCCCn1c(C(=O)/C=C/c2ccc(C)cc2)nc2ccccc21,512,512,512,512,512,512,512,256,512,512,256,512,512,512,512
